≈ marks a conversion by molar mass, not a printed value.
Test system: Escherichia coli ATCC 25922
Experiment: Minimal Inhibitory Concentration (MIC) determination, broth microdilution
Format: cell-based
Settings: ATCC25922; strain Escherichia coli ATCC 25922; broth microdilution per CLSI M07-A10; 18-24 hours at 35±2° C.; lowest concentration for complete growth inhibition
Protocol: Minimal Inhibitory Concentration (MIC) Determination:
The MIC of antibacterial compounds against multiple species and strains was determined using the broth microdilution method according to M07-A10 Clinical and Laboratory Standards Institute (CLSI) guidelines, using the appropriate broth medium. In short, the compound plates were prepared by dispensing 100 μL of each stock solution in the first well of a 96 well microtiter plate (MTP) at a concentration 100-fold higher than the final concentration desired in broth. Eleven serial 2-fold dilutions of the highest concentration were made in DMSO for new compounds and in water (or appropriate solution) for reference compounds [2]. 1 μL of each well was transferred in a new MTP, which served as the test plate by subsequent inoculation. This bacterial suspension was prepared from strains that were first sub-cultured on agar plates and incubated for 18-24 hours as appropriate. Following incubation, the inoculum was prepared from isolated colonies and adjusted to 0.5 McFarland turbidity standard (1 to 2×10^8 Colony Forming Units (CFU)/mL) in 0.9% saline. The bacterial suspension was then diluted 1:200 in appropriate sterile medium and within 15 minutes 100 μL/well were dispensed. Negative controls (lack of bacterial cells) and growth control wells (lack of compound) were included in all plates. MTPs were incubated for 18-24 hours at 35±2° C. in ambient air. The MIC value of each compound, expressed as μg/mL, was determined as the lowest concentration required for complete growth inhibition (no visible growth). • [1] CLSI (2015) Methods for dilution antimicrobial susceptibility tests for bacteria that grow aerobically; Approved Standard, Tenth Edition. CLSI Document M7-A10 (ISBN 1-56238-987-4). Wayne, PA: Clinical and Laboratory Standards Institute, 19087, USA. • [2] CLSI (2017) Performance Standards for Antimicrobial Susceptibility Testing; Twenty-Fifth Informational Supplement. CLSI Document M100-S27, CLSI, Wayne, Pennsylvania 19087, USA.
Table 1 provides the Minimal Inhibitory Concentrations (MIC) in micrograms per millilitre of the compounds of present invention obtained against the strain Escherichia coli ATCC 25922.

Compound	MIC [µg/mL]
C[C@@H](C(=O)Nc1cc(F)c2c(c1)CC(CN1CCC3(CC1)CN(c1cnc4c(n1)NC(=O)CO4)C(=O)O3)C2)N(C)C (stereo partly drawn) [Example 51, (2S)-2-(Dimethylamino)-N-[7-fluoro-2-[[2-oxo-3-(3-oxo-4H-pyrazino[2,3-b][1,4]oxazin-6-yl)-1-oxa-3,8-diazaspiro[4.5]decan-8-yl]methyl]indan-5-yl]propanamide]	0.125 (≈ 0.22 µM)
C[C@H](C(=O)Nc1cc(F)c2c(c1)CC(CNCC[C@@H]1CN(c3cnc4c(n3)NC(=O)CO4)C(=O)O1)C2)N(C)C (stereo partly drawn) [Example 70, (2R)-2-(Dimethylamino)-N-[7-fluoro-2-[[2-[(5R)-2-oxo-3-(3-oxo-4H-pyrazino[2,3-b][1,4]oxazin-6-yl)oxazolidin-5-yl]ethylamino]methyl]indan-5-yl]propanamide]	0.125 (≈ 0.231 µM)
Cc1ncc(C(=O)Nc2cc(F)c3c(c2)CC(CNCCC2CN(c4cnc5c(n4)NC(=O)CO5)C(=O)O2)C3)o1 (stereo not drawn) [Example 15, N-[7-fluoro-2-[[2-[2-oxo-3-(3-oxo-4H-pyrazino[2,3-b][1,4]oxazin-6-yl)oxazolidin-5-yl]ethylamino]methyl]indan-5-yl]-2-methyl-oxazole-5-carboxamide]	0.25 (≈ 0.453 µM)
CN1C[C@H](O)C[C@H]1C(=O)Nc1cc(F)c2c(c1)CC(CN1CCC3(CC1)CN(c1cnc4c(n1)NC(=O)CO4)C(=O)O3)C2 (stereo partly drawn) [Example 64, (2S,4R)—N-[7-Fluoro-2-[[2-oxo-3-(3-oxo-4H-pyrazino[2,3-b][1,4]oxazin-6-yl)-1-oxa-3,8-diazaspiro[4.5]decan-8-yl]methyl]indan-5-yl]-4-hydroxy-1-methyl-pyrrolidine-2-carboxamide]	0.25 (≈ 0.42 µM)
O=C(O)C(F)(F)F.O=C1COc2ncc(N3CC4(CCN(CC5Cc6cc(NC(=O)[C@]7(CO)CCCN7)cc(F)c6C5)CC4)OC3=O)nc2N1 (stereo partly drawn) [Example 53, (2R)—N-[7-Fluoro-2-[[2-oxo-3-(3-oxo-4H-pyrazino[2,3-b][1,4]oxazin-6-yl)-1-oxa-3,8-diazaspiro[4.5]decan-8-yl]methyl]indan-5-yl]-2-(hydroxymethyl)pyrrolidine-2-carboxamide; 2,2,2-trifluoroacetic Acid]	0.25
COC1(CNCC2CN(c3cnc4c(n3)NC(=O)CO4)C(=O)O2)Cc2c(F)cc(NC(=O)[C@@H](C)N(C)C)c(F)c2C1 (stereo partly drawn) [Example 31]	4 (≈ 6.95 µM)
N[C@@H](CC(=O)O)C(=O)Nc1cc(F)c2c(c1)CC(CNCCC1CN(c3cnc4c(n3)NC(=O)CO4)C(=O)O1)C2.O=C(O)C(F)(F)F (stereo partly drawn) [Example 48, (3S)-3-amino-4-[[7-fluoro-2-[[2-[2-oxo-3-(3-oxo-4H-pyrazino[2,3-b][1,4]oxazin-6-yl)oxazolidin-5-yl]ethylamino]methyl]indan-5-yl]amino]-4-oxo-butanoic acid; 2,2,2-trifluoroacetic acid]	4
C[C@@]1(C(=O)Nc2cc(F)c3c(c2)CC(CN2CCC4(CC2)CN(c2cnc5c(n2)NC(=O)CO5)C(=O)O4)C3)C[C@@H](O)CN1 (single isomer, unassigned) [Example 72]	0.5 (≈ 0.839 µM)
C[C@H](C(=O)Nc1cc(F)c2c(c1)CC(CNCCC1CN(c3cnc4c(n3)NC(=O)CO4)C(=O)O1)C2)N(C)C (stereo partly drawn) [Example 4, (2R)-2-(dimethylamino)-N-[7-fluoro-2-[[2-[2-oxo-3-(3-oxo-4H-pyrazino[2,3-b][1,4]oxazin-6-yl)oxazolidin-5-yl]ethylamino]methyl]indan-5-yl]propanamide]	0.125 (≈ 0.231 µM)
O=C1COc2ncc(N3CC4(CCN(CC5Cc6cc(NC(=O)[C@@H]7C[C@@H](O)CN7)cnc6C5)CC4)OC3=O)nc2N1 (stereo partly drawn) [Example 60, (2S,4R)-4-Hydroxy-N-[6-[[2-oxo-3-(3-oxo-4H-pyrazino[2,3-b][1,4]oxazin-6-yl)-1-oxa-3,8-diazaspiro[4.5]decan-8-yl]methyl]-6,7-dihydro-5H-cyclopenta[b]pyridin-3-yl]pyrrolidine-2-carboxamide]	0.5 (≈ 0.886 µM)
Cc1cc(NC(=O)[C@@H](C)N(C)C)nc2c1CC(CNCCC1CN(c3cnc4c(n3)NC(=O)CO4)C(=O)O1)C2 (stereo partly drawn) [Example 25, (2R)-2-(dimethylamino)-N-[4-methyl-6-[[2-[2-oxo-3-(3-oxo-4H-pyrazino[2,3-b][1,4]oxazin-6-yl)oxazolidin-5-yl]ethylamino]methyl]-6,7-dihydro-5H-cyclopenta[b]pyridin-2-yl]propanamide]	1 (≈ 1.86 µM)

The next lines start with the values.

MIC [µg/mL]	Compound
0.125 (≈ 0.226 µM)	CN1CCC[C@@H]1C(=O)Nc1cc(F)c2c(c1)CC(CNCCC1CN(c3cnc4c(n3)NC(=O)CO4)C(=O)O1)C2 (stereo partly drawn) [Example 14, (2R)-N-[7-fluoro-2-[[2-[2-oxo-3-(3-oxo-4H-pyrazino[2,3-b][1,4]oxazin-6-yl)oxazolidin-5-yl]ethylamino]methyl]indan-5-yl]-1-methyl-pyrrolidine-2-carboxamide]
0.125 (≈ 0.228 µM)	C[C@H](C(=O)Nc1cc(C#N)c2c(c1)CC(CNCC[C@@H]1CN(c3cnc4c(n3)NC(=O)CO4)C(=O)O1)C2)N(C)C (stereo partly drawn) [Example 22, (2R)-N-[7-cyano-2-[[2-[(5R)-2-oxo-3-(3-oxo-4H-pyrazino[2,3-b][1,4]oxazin-6-yl)oxazolidin-5-yl]ethylamino]methyl]indan-5-yl]-2-(dimethylamino)propanamide]
0.5 (≈ 0.9 µM)	O=C1COc2ncc(N3CC(CCNCC4Cc5cc(NC(=O)[C@@H]6C[C@@H](O)CN6)cc(F)c5C4)OC3=O)nc2N1 (stereo partly drawn) [Example 37, (2S,4R)-N-[7-fluoro-2-[[2-[2-oxo-3-(3-oxo-4H-pyrazino[2,3-b][1,4]oxazin-6-yl)oxazolidin-5-yl]ethylamino]methyl]indan-5-yl]-4-hydroxy-pyrrolidine-2-carboxamide]
≤ 0.06	CN1CCC[C@@H]1C(=O)Nc1cc(C#N)c2c(c1)CC(CNCCC1CN(c3cnc4c(n3)NC(=O)CO4)C(=O)O1)C2 (stereo partly drawn) [Example 62, (2R)—N-[7-Cyano-2-[[2-[2-oxo-3-(3-oxo-4H-pyrazino[2,3-b][1,4]oxazin-6-yl)oxazolidin-5-yl]ethylamino]methyl]indan-5-yl]-1-methyl-pyrrolidine-2-carboxamide]
0.5 (≈ 0.934 µM)	CC(C)(O)C(=O)Nc1cc(C#N)c2c(c1)CC(CNCCC1CN(c3cnc4c(n3)NC(=O)CO4)C(=O)O1)C2 (stereo not drawn) [Example 20]
0.125 (≈ 0.232 µM)	O=C(CN1CCC1)Nc1cc(F)c2c(c1)CC(CNCCC1CN(c3cnc4c(n3)NC(=O)CO4)C(=O)O1)C2 (stereo not drawn) [Example 8, 2-(azetidin-1-yl)-N-[7-fluoro-2-[2-[2-oxo-3-(3-oxo-4H-pyrazino[2,3-b][1,4]oxazin-6-yl)oxazolidin-5-yl]ethylaminomethyl]indan-5-yl]acetamide]
0.125 (≈ 0.231 µM)	C[C@@H](C(=O)Nc1cc(F)c2c(c1)CC(CNCCC1CN(c3cnc4c(n3)NC(=O)CO4)C(=O)O1)C2)N(C)C (stereo partly drawn) [Example 9]
0.25 (≈ 0.45 µM)	O=C1COc2ncc(N3CC(CCNCC4Cc5cc(NC(=O)[C@H]6C[C@H](O)CN6)cc(F)c5C4)OC3=O)nc2N1 (stereo partly drawn) [Example 47, (2R,4S)-N-[7-fluoro-2-[[2-[2-oxo-3-(3-oxo-4H-pyrazino[2,3-b][1,4]oxazin-6-yl)oxazolidin-5-yl]ethylamino]methyl]indan-5-yl]-4-hydroxy-pyrrolidine-2-carboxamide]
0.125 (≈ 0.221 µM)	O=C(CN1CC2CC2C1)Nc1cc(F)c2c(c1)CC(CNCCC1CN(c3cnc4c(n3)NC(=O)CO4)C(=O)O1)C2 (stereo not drawn) [Example 12, 2-(3-azabicyclo[3.1.0]hexan-3-yl)-N-[7-fluoro-2-[2-[2-oxo-3-(3-oxo-4H-pyrazino[2,3-b][1,4]oxazin-6-yl)oxazolidin-5-yl]ethylaminomethyl]indan-5-yl]acetamide]

Same assay, conditions: strain Escherichia coli ATCC 25922; broth microdilution per CLSI M07-A10; 18-24 hours at 35±2° C.; lowest concentration for complete growth inhibition

Escherichia coli growth inhibition MIC [µg/mL]	Compound
0.125	C[C@H](C(=O)Nc1cc(F)c2c(c1)CC(CNCC[C@@H]1CN(c3cnc4c(n3)NC(=O)CO4)C(=O)O1)C2)N(C)C (stereo partly drawn) [Example 71, (2R)-2-(Dimethylamino)-N-[7-fluoro-2-[[2-[(5R)-2-oxo-3-(3-oxo-4H-pyrazino[2,3-b][1,4]oxazin-6-yl)oxazolidin-5-yl]ethylamino]methyl]indan-5-yl]propanamide]
